Laboratory results reported in US20240199728A1, “METHODS OF TREATING OBESITY, DIABETES, AND LIVER DYSFUNCTION” (REGENERON PHARMACEUTICALS, INC., priority 2022, published 2024).

Columns and labels:
Format in all cases: in vivo
[1] = tested on: diet-induced obesity (DIO) mouse model; experiment: Body weight and body composition (MRI) over time in diet-induced obesity (DIO) mouse model; design: Body weight changes over time, Mean / Lean mass changes over time, Mean / Fat mass changes over time, Mean: unit not given here; settings: DIO mice; for Fat mass changes over time, Mean / Lean mass changes over time, Mean: MRI
Source text: (§1) DIO mice that have been fed a high fat diet for at least 20 weeks were distributed into 4 different groups balanced by body fat content as determined by MRI and blood glucose. On day 0, all mice were implanted with osmotic pumps (Alzet, Cat #2004), in which the stainless steel flow moderators were replaced with PEEK tubing (DURECT Corporation, Cat #0002496) to allow for MRI measurements during the experiment. Pumps for groups 1 and 2 contained PBS, while pumps used for groups 3 and 4 contained Semaglutide (0.833 mg/mL for […] infusion). The next day (day 1), mice were injected with their respective antibodies: group 1 and group 3: Isotype control (at 20 mg/kg); group 2 and group 4: anti-GDF8 antibody (REGN1033) & anti-Activin A antibody (REGN2477) (at 10 mg/kg each). The antibody injections were repeated on days 4 and 7 and once weekly after that.
(§2) Body composition using MRI and fed blood glucose using a glucometer from tail bleeds were measured weekly in the morning. Mice were also bled for insulin measurements on a weekly basis. An oral glucose tolerance test (OGTT) was performed on day 23. For the OGTT, mice were fasted for 4 hours, and baseline glucose was measured. Subsequently, 2 g/kg glucose was administered to the mice by oral gavage, and glucose was measured again after 30, 60, 90, and 120 minutes. On day 26, 6 hour fasted blood glucose was measured, and mice were bled for insulin assessment as described above. At the end of the study (day 28/29), mice were sacrificed, and tissue (skeletal muscle, adipose, pancreas, heart, spleen, liver) was collected for weight and further analysis. Mouse plasma was used to measure circulating levels of ALT, AST, non-esterified fatty acids (NEFAs), triglycerides (trigs), and cholesterol (chol) on the Advia Chemistry Analyzer from Siemens. One lobe of the liver was fresh frozen to allow for triglyceride extraction and quantification using standard protocols. Another lobe of the liver and the pancreas were fixed in 10% formalin, embedded in paraffin, and sectioned for liver histology. H&E, as well as smooth muscle actin (SMA), staining was performed, and slides were subjected to quantification using Halo software. Paraffin sections of the pancreas were stained for insulin and glucagon to determine beta cell and alpha cell mass, respectively, using Halo software.

[2] = tested on: diet-induced obesity (DIO) mouse model; experiment: Final tissue/organ weights at end of study (day 28/29), DIO mice; settings: control group = 0.00 (FIG. 2B: % change vs. control), in %
Source text: DIO mice that have been fed a high fat diet for at least 20 weeks were distributed into 4 different groups balanced by body fat content as determined by MRI and blood glucose. On day 0, all mice were implanted with osmotic pumps (Alzet, Cat #2004), in which the stainless steel flow moderators were replaced with PEEK tubing (DURECT Corporation, Cat #0002496) to allow for MRI measurements during the experiment. Pumps for groups 1 and 2 contained PBS, while pumps used for groups 3 and 4 contained Semaglutide (0.833 mg/mL for 7 ug/day infusion). […]
Body composition using MRI and fed blood glucose using a glucometer from tail bleeds were measured weekly in the morning. […] For the OGTT, mice were fasted for 4 hours, and baseline glucose was measured. Subsequently, 2 g/kg glucose was administered to the mice by oral gavage, and glucose was measured again after 30, 60, 90, and 120 minutes. On day 26, 6 hour fasted blood glucose was measured, and mice were bled for insulin assessment as described above. […] One lobe of the liver was fresh frozen to allow for triglyceride extraction and quantification using standard protocols. […] H&E, as well as smooth muscle actin (SMA), staining was performed, and slides were subjected to quantification using Halo software. […]

[3] = tested on: diet-induced obesity (DIO) mouse model; experiment: Fed blood glucose, insulin and glucagon, DIO mice
Source text: as §1, §2

[4] = tested on: diet-induced obesity (DIO) mouse model; experiment: Oral glucose tolerance test (OGTT) and fasted blood glucose, DIO mice
Source text: as §1
as §2, with “Subsequently, 2 g/kg glucose was administered to the mice by oral gavage, and glucose was measured again after 30, 60, 90, and 120 minutes.” left out

[5] = tested on: diet-induced obesity (DIO) mouse model; experiment: Plasma ALT, AST, NEFA, triglycerides, cholesterol (Advia Chemistry Analyzer), DIO mice; settings: end of study, first value of group (mean)
Source text: as §1
as §2, with “Another lobe of the liver and the pancreas were fixed in 10% formalin, embedded in paraffin, and sectioned for liver histology.” left out, “Paraffin sections of the pancreas were stained for insulin and glucagon to determine beta cell and alpha cell mass, respectively, using Halo software.” left out

[6] = tested on: diet-induced obesity (DIO) mouse model; experiment: Liver triglyceride extraction and liver histology (H&E, SMA staining), DIO mice; settings: end of study
Source text: as §1, §2

[7] = tested on: obese adult male cyno non-human primate (NHP) with NASH; experiment: Obese NHP study of body weight, liver and metabolic effects of adding myostatin/activin A blockade onto GLP-1R agonism; settings: week 12
Description: An obese NHP study of the body weight, liver and metabolic effects of adding on myostatin/activin A blockade onto GLP-1R agonism was carried out. FIG. 10 sets forth the study and timeline for obese adult male cyno non-human primate (NHP) with NASH, stratified based on body weight and % body fat, n=10 per arm.
The treatment groups were: • vehicle; • Semaglutide; • Anti-Myostatin+anti-Activin A; • Semaglutide+anti-Myostatin; and • Semaglutide+anti-Myostatin+anti-Activin A. REGN1033 is an anti-Myostatin antibody, and REGN2477 is an anti-Activin A antibody. The GLP-1 agonist employed was Semaglutide. Semaglutide was administered at 10 μg/kg. Anti-Myostatin antibody was administered at 50 mg/kg. Anti-Activin A antibody was administered at 50 mg/kg.
Postmenopausal women received 10 mg/kg (anti-myostatin+anti-activin A) IV, Q2W. Thigh muscle volume was measured via MRI, and android fat mass was measured via iDXA, both over 30 weeks. Obese non-human primates received 50 mg/kg anti-myostatin+50 mg/kg anti-activin A (QW). Total lean mass was measured via iDXA, and total fat mass was measured via iDXA, both over 28 weeks. […]

Substance: Semaglutide
- Body weight changes over time, Mean ([1]; Day 5): −11.33
- Body weight changes over time, Mean ([1]; Day 6): −12.46
- Body weight changes over time, Mean ([1]; Day 9): −15.25
- Body weight changes over time, Mean ([1]; Day 12): −16.20
- Body weight changes over time, Mean ([1]; Day 13): −15.72
- Body weight changes over time, Mean ([1]; Day 14): −17.49
- Body weight changes over time, Mean ([1]; Day 19): −15.74
- Body weight changes over time, Mean ([1]; Day 23): −13.16
- Body weight changes over time, Mean ([1]; Day 26): −12.53
- Body weight changes over time, Mean ([1]; Day −6 (before treatment)): 0
- Fat mass changes over time, Mean ([1]; Day 5): −23.75
- Lean mass changes over time, Mean ([1]; Day 5): −3.50
- Fat mass changes over time, Mean ([1]; Day 12): −33.78
- Lean mass changes over time, Mean ([1]; Day 12): −4.09
- Fat mass changes over time, Mean ([1]; Day 19): −34.24
- Lean mass changes over time, Mean ([1]; Day 19): −2.43
- Lean mass changes over time, Mean ([1]; Day 25): −1.93
- Fat mass changes over time, Mean ([1]; Day 26): −29.52
- Fat mass changes over time, Mean ([1]; Day −6 (before treatment)): 0
- Lean mass changes over time, Mean ([1]; Day −6 (before treatment)): 0
- decrease in body weight as compared with the control group ([1]; vs control group): approximately 14%
- decrease in lean mass as compared with the control group ([1]; vs control group): 3-4%
- loss in fat mass compared to the control group ([1]; vs control group (Group 1)): approximately 18%
- Final organ weights, Gonadal Fat, Mean [2]: −10.56
- Final organ weights, Subq Fat, Mean [2]: −22.58
- fed insulin over time, Mean ([3]; Day 6): 6.2175
- fed insulin over time, Mean ([3]; Day 13): 2.296
- Fed glucose over time, Mean ([3]; Day 20, in mg/dL (unit assumed)): 259.5
- fed insulin over time, Mean ([3]; Day −5 (before treatment)): 16.285
- Fed glucagon levels at day 20, Mean ([3]; day 20): 4.106
- Area under the curve of OGTT at day 23, Mean ([4]; 2 g/kg glucose oral gavage, day 23): 27698
- 4 hrs fasted glucose levels at day 23, Mean ([4]; 4 hrs fasted, day 23, in mg/dL (unit assumed)): 192.1
- 6 hrs fasted glucose levels at day 26, Mean ([4]; 6 hrs fasted, day 26, in mg/dL (unit assumed)): 172.6
- oGTT measurement on day 23 (glucose), Mean ([4]; Time 0 min): 192.125
- oGTT measurement on day 23 (glucose), Mean ([4]; Time 15 min): 433.5
- oGTT measurement on day 23 (glucose), Mean ([4]; Time 30 min): 310.75
- oGTT measurement on day 23 (glucose), Mean ([4]; Time 60 min): 230.75
- Plasma measurements - Liver panel, AST [5]: 103.625
- Plasma measurements - Liver panel, Chol [5]: 193.75
- Plasma measurements - Liver panel, NEFA [5]: 0.5837
- Liver fat area, Mean ([6]; H&E liver histology): 28.34
- SMA positive area (% of fat-free area), Mean ([6]; liver SMA staining): 6.942 % of fat-free area
- SMA positive area (normalized to nuclei amount), Mean ([6]; liver SMA staining): 14.32
- Liver triglycerides, Mean ([6]; liver tissue): 153.6
- lean mass (in words) [7]: lean mass loss
